Assay: Drug crystallization in media of different pH (PXRD)
Type: physicochemical
Procedure: PXRD was used to confirm the amorphous state of freshly prepared DLM ASDs and to detect drug crystallization in solution. […] Crystallization of the DLM salt was evaluated at predetermined time points. Drug crystallization in ASDs upon acidic incubation was conducted at the same drug concentration as in the dissolution testing: 20 mg of ASD powder was added to 50 mL of acidic solutions at pH 1.6, 3.0, or 5.0 and kept stirring at 300 rpm, 37 °C for 1 h.
Undissolved particles were collected by vacuum filtration and analyzed using a Rigaku Smartlab diffractometer (Rigaku Americas, The Woodlands, TX) equipped with a Cu–Kα radiation source and a D/tex ultradetector. Diffractograms were acquired with a scanning speed of 4°/min (4–40° 2θ) and 0.02° step size. The voltage and current were 40 kV and 44 mA, respectively.

- pHmax (crystallization to the free base observed at all pHs investigated): < 1.6
- immersion time at which evidence of crystalline free base was seen (neat amorphous salt in suspension, 37 °C): 5 min
- crystallization of neat amorphous salt (pH 1.6 and 3.0): rapid
- rate of crystallization of neat amorphous salt (pH 5.0 and 6.5): much reduced
Compound: C[C@]1(COc2ccc(N3CCC(Oc4ccc(OC(F)(F)F)cc4)CC3)cc2)Cn2cc([N+](=O)[O-])nc2O1.O=S(=O)(O)CCS(=O)(=O)O [DLM edisylate]

From publication PMC9997068, “Impact of Gastric pH Variations on the Release of Amorphous Solid Dispersion Formulations Containing a Weakly Basic Drug and Enteric Polymers” (Molecular Pharmaceutics, 2023)
